Measured values: patent US20250353858A1, “CONDENSED HETEROCYCLIC COMPOUNDS AS INHIBITOR OF DIACYLGLYCEROL KINASES” (BEONE MEDICINES I GMBH, priority 2023, published 2025)

Legend:
DGKζ = DGKζ (Homo sapiens (Human), UniProt Q13574); test: Biochemical DGK IC50 assay (ADP-Glo, lipid micelle substrate), DGKζ; conditions: full length DGKζ 0.5 nM, ATP 140 μM, DAG 80 μM
Method: (§1) Enzymatic reactions of DGKζ, DGKα and DGKδ were performed using ADP-Glo assay with lipid micelle substrate. […] Full length DGKα (D21-10BG, SignalChem) and full length DGKδ (D23-10G, SignalChem) were purchased. Lipid micelle was prepared by dissolving DAG (Sigma, 317505-10MG) and PS (Sigma, P7769-100MG) with chloroform which was furtherly removed by rotary evaporation. The resulted product was resuspended in buffer containing 25 mM HEPES pH 7.0, 0.5 mM EDTA and 160 mM Octyl β-D glucopyranoside by vigorous mixing and ultrasonic (IID, Scientz).
(§2) The inhibition activities testing for the compound disclosed herein were carried out at room temperature in assay buffer containing 50 mM HEPES, 10 mM MgCl2, 0.01% BSA, 0.1 mM Na3VO4, 0.005% Tween-20 and 0.01 mM CaCl2. Compounds in DMSO were dispensed into wells of a black 384 well plate (Corning 4514) using D300e digital dispenser (Tecan). […] 3 μL 2× enzyme solution was added to wells. […] After 1 hour reaction, 5 μL ADP-Glo reagent (Promga V9101) was added and incubated for 40 minutes. 10 μL Kinase Detection reagent was added and incubated for 30 minutes. Luminescence was measured on a microplate reader (PHERAstar FSX, BMG labtech). The IC50s are calculated based on inhibition of enzyme activity in the presence of increasing concentrations of compounds.
Human His-TEV-DGK-zeta-pFastBac1 and human baculovirus samples was generated using the Bac-to-Bac baculovirus expression system (Invitrogen) according to the manufacturer's protocol. The DNA used for expression of DGK-zeta, have SEQ ID Nos: 1. Baculovirus amplification was achieved using infected SF9 cells at 1:2000 virus/cells ratios, and grown for 96 hours at 27° C. post-transfected.
Full length human DGKζ produced as described above, was purified from Sf9 baculovirus-infected insect cell paste. The cells were lysed using sonication method, and the lysates were clarified by centrifugation.

DGKα = DGKα (Homo sapiens (Human), UniProt P23743); test: Biochemical DGK IC50 assay (ADP-Glo, lipid micelle substrate), DGKα; conditions: full length DGKα […], ATP 140 μM, DAG 80 μM; further: full length DGKα 7.5 nM
Sequence of DGKα (P23743 whole entry): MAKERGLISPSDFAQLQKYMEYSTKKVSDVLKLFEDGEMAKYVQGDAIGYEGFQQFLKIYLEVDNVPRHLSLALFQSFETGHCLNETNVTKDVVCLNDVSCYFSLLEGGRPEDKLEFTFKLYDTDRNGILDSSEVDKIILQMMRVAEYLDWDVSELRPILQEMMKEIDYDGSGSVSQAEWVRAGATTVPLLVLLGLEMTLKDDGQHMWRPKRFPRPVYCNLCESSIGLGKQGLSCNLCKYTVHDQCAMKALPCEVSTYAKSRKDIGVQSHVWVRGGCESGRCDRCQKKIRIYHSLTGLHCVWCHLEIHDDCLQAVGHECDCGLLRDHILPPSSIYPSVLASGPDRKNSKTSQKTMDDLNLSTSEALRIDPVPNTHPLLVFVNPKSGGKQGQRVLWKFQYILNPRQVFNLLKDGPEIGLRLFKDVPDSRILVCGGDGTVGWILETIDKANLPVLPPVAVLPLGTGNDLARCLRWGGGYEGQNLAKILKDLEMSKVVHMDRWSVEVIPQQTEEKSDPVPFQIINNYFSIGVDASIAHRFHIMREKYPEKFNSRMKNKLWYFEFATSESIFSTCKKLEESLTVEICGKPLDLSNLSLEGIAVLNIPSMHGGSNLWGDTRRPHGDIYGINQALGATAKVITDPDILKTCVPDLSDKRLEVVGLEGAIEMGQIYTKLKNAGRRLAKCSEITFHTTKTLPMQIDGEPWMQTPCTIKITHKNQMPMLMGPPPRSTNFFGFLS
Method: as §1, §2

Sequence of DGKζ (Q13574 other isoform, or with tags, fused parts or gaps): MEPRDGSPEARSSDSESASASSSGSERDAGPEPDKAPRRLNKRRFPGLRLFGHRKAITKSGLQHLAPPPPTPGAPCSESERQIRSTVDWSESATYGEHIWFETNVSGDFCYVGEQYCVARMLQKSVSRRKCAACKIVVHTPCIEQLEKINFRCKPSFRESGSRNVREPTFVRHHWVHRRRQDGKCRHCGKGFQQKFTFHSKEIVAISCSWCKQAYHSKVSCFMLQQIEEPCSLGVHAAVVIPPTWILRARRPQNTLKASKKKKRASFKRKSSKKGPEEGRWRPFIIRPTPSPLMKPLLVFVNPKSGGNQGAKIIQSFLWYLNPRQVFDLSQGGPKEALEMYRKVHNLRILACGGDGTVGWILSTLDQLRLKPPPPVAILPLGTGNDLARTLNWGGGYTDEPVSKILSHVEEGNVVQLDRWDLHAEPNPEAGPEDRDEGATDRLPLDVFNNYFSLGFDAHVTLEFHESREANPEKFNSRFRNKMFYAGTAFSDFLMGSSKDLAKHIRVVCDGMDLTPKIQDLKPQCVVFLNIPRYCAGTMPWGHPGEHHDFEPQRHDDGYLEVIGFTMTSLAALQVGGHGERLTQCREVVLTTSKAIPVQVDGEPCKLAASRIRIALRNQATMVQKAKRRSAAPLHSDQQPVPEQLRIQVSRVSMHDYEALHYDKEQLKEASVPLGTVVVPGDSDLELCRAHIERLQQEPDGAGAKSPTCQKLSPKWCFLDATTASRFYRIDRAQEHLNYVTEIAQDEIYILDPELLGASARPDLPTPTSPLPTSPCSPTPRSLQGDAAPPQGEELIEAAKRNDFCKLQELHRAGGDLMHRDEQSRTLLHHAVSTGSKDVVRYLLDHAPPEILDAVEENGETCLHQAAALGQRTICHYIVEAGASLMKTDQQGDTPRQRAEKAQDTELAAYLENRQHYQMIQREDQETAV

With `CC[C@H]1CN(C(C)c2ccn3nc(C)cc3c2)[C@H](CC)CN1c1nc(=O)n(C)c2cc(CC#N)nn12` (stereo partly drawn) [Compound A55, 2-(4-((2S,5R)-2,5-diethyl-4-(1-(2-methylpyrazolo[1,5-a]pyridin-5-yl)ethyl)piperazin-1-yl)-1-methyl-2-oxo-1,2-dihydropyrazolo[1,5-a][1,3,5]triazin-7-yl)acetonitrile] the IC50 (DGKζ) was 53 nM and the IC50 (DGKα) was 150 nM.
`CC[C@H]1CN(C(C)c2ccn3nc(F)cc3n2)[C@H](CC)CN1c1nc(=O)n(C)c2cc(CC#N)nn12` (stereo partly drawn) [Compound A56, 2-(4-((2S,5R)-2,5-diethyl-4-(1-(2-fluoropyrazolo[1,5-a]pyrimidin-5-yl)ethyl)piperazin-1-yl)-1-methyl-2-oxo-1,2-dihydropyrazolo[1,5-a][1,3,5]triazin-7-yl)acetonitrile] gave an IC50 (DGKζ) of 73 nM and an IC50 (DGKα) of 17 nM.
`CC[C@H]1CN(C(C)c2ccn3nc(Cl)cc3n2)[C@H](CC)CN1c1nc(=O)n(C)c2cc(CC#N)nn12` (stereo partly drawn) [Compound A58, 2-(4-((2S,5R)-4-(l-(2-chloropyrazolo[1,5-a]pyrimidin-5-yl)ethyl)-2,5-diethylpiperazin-1-yl)-1-methyl-2-oxo-1,2-dihydropyrazolo[1,5-a][1,3,5]triazin-7-yl)acetonitrile] was tested, and the IC50 (DGKζ) was 42 nM and the IC50 (DGKα) was 15 nM.
`CC[C@H]1CN(C(C)c2ccn3nc(Cl)c(F)c3n2)[C@H](CC)CN1c1nc(=O)n(C)c2cc(CC#N)nn12` (stereo partly drawn) [Compound A59, 2-(4-((2S,5R)-4-(1-(2-chloro-3-fluoropyrazolo[1,5-a]pyrimidin-5-yl)ethyl)-2,5-diethylpiperazin-1-yl)-1-methyl-2-oxo-1,2-dihydropyrazolo[1,5-a][1,3,5]triazin-7-yl)acetonitrile] was tested, and the IC50 (DGKζ) was 38 nM and the IC50 (DGKα) was 111 nM.
Compound `CC[C@H]1CN(C(C)c2ccn3nc(F)c(F)c3n2)[C@H](CC)CN1c1nc(=O)n(C)c2cc(CC#N)nn12` (stereo partly drawn) [Compound A60, 2-(4-((2S,5R)-4-(1-(2,3-difluoropyrazolo[1,5-a]pyrimidin-5-yl)ethyl)-2,5-diethylpiperazin-1-yl)-1-methyl-2-oxo-1,2-dihydropyrazolo[1,5-a][1,3,5]triazin-7-yl)acetonitrile] has an IC50 (DGKζ) of 40 nM and an IC50 (DGKα) of 63 nM.
